From patent publication US10975119B2, “Selective cysteine protease inhibitors and uses thereof” (Genesis Technologies Limited, priority 2011, dated 2021)
Structures can show the parent of a compound that is named as a salt. Where two headings read alike, the source gives them in different places.

What was measured:
Type in all cases: biochemical
[1] = target: T1, Caspase-9 (Homo sapiens, UniProt P55211); assay: Caspase-9 inhibitor screening assay (BioVision kit, LEHD-AFC); settings: for inhibition at 10 µM: read-out: % Inhibition at 10 uM Casp9; for inhibition at 100 µM: read-out: % Inhibition at 100 uM Casp9
T1 construct: purchased BioVision K159-100
T1 sequence (P55211 1-315 limits assumed): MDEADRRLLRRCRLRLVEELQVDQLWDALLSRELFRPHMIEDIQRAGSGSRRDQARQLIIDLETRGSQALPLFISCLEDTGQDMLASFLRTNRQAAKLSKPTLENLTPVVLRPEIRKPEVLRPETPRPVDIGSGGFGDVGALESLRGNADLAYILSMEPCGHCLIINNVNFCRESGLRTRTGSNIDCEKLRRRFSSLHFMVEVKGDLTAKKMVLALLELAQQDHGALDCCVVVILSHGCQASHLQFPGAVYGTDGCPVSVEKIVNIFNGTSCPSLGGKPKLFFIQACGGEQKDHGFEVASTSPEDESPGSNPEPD
T1 sequence (P55211 331-416 limits assumed): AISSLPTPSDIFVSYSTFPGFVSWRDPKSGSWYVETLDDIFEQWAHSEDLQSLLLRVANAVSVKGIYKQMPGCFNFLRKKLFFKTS
Outline: (§1)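 Each caspase cleaved its own AFC-labelled peptide substrate, and released AFC was read by fluorescence. % inhibition came from RFU against an uninhibited control.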

[2] = target: T2, Caspase-7 (Homo sapiens, UniProt P55210); assay: Caspase-7 inhibitor screening assay (BioVision kit, DEVD-AFC); settings: for inhibition at 10 µM: read-out: % Inhibition at 10 uM Casp7; for inhibition at 100 µM: read-out: % Inhibition at 100 uM Casp7
T2 construct: mixing the compounds with the respective active caspases; purchased BioVision K157-100
T2 sequence (P55210 24-198 limits assumed): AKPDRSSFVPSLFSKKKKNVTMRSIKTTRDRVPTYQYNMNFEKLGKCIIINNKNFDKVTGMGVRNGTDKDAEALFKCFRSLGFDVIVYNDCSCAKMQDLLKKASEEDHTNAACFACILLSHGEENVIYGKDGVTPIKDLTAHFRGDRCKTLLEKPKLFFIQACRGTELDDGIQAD
T2 sequence (P55210 207-303 limits assumed): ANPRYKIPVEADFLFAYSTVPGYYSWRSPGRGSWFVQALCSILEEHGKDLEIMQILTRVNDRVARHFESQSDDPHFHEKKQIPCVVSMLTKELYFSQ
Outline: as §1

[3] = target: T3, Caspase-4 (Homo sapiens, UniProt P49662); assay: Caspase-4 inhibitor screening assay (BioVision kit, LEVD-AFC); settings: for inhibition at 10 µM: read-out: % Inhibition at 10 uM Casp4; for inhibition at 100 µM: read-out: % Inhibition at 100 uM Casp4; for IC50: read-out: IC50 Casp4
T3 construct: mixing the compounds with the respective active caspases; purchased BioVision K154-100
T3 sequence (P49662 81-270 limits assumed): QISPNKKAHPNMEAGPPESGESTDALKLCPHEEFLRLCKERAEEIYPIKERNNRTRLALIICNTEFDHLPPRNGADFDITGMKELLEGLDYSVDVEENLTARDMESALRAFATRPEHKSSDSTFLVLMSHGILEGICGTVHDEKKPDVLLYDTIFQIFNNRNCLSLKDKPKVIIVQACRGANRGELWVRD
T3 sequence (P49662 290-377 limits assumed): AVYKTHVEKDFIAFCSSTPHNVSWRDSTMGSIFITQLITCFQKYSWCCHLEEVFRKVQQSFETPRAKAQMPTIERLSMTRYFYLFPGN
Outline: as §1

[4] = target: T4, Caspase-6 (Homo sapiens, UniProt P55212); assay: Caspase-6 inhibitor screening assay (BioVision kit, VEID-AFC); settings: for inhibition at 10 µM: read-out: % Inhibition at 10 uM Casp6; for inhibition at 100 µM: read-out: % Inhibition at 100 uM Casp6
T4 construct: mixing the compounds with the respective active caspases; purchased BioVision K156-100
T4 sequence (P55212 24-179 limits assumed): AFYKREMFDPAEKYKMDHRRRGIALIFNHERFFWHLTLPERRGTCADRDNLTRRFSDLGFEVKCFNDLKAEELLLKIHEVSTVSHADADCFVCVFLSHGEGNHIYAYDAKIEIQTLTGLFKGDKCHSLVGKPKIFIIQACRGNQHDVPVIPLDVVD
T4 sequence (P55212 194-293 limits assumed): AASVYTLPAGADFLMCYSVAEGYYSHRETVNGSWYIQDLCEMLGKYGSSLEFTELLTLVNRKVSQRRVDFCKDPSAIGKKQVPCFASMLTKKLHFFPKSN
Outline: as §1

[5] = target: T5, Caspase-10 (Homo sapiens, UniProt Q92851); assay: Caspase-10 inhibitor screening assay (BioVision kit, AEVD-AFC); settings: for inhibition at 10 µM: read-out: % Inhibition at 10 uM Casp10; for inhibition at 100 µM: read-out: % Inhibition at 100 uM Casp10
T5 construct: mixing the compounds with the respective active caspases; purchased BioVision K160-100
T5 sequence (Q92851 220-415 limits assumed): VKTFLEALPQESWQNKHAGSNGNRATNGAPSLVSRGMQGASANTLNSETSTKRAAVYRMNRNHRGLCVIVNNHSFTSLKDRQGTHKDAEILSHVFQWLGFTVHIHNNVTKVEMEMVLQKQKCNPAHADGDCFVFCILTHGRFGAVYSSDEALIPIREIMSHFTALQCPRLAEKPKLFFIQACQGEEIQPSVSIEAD
T5 sequence (Q92851 416-521 limits assumed): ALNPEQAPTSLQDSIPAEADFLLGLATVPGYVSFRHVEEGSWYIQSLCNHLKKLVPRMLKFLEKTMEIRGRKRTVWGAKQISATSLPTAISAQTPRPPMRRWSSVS
Outline: as §1

[6] = target: T6, Caspase-2 (Homo sapiens, UniProt P42575); assay: Caspase-2 inhibitor screening assay (BioVision kit, VDVAD-AFC); settings: for inhibition at 10 µM: read-out: % Inhibition at 10 uM Casp2; for inhibition at 100 µM: read-out: % Inhibition at 100 uM Casp2; for IC50: read-out: IC50 Casp2
T6 construct: mixing the compounds with the respective active caspases; purchased BioVision K152-100
T6 sequence (P42575 170-325 limits assumed): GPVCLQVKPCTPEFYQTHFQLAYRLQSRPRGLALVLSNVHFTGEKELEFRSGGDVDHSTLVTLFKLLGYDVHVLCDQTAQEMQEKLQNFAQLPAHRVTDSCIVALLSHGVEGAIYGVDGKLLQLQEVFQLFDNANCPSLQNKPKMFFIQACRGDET
T6 sequence (P42575 334-452 limits assumed): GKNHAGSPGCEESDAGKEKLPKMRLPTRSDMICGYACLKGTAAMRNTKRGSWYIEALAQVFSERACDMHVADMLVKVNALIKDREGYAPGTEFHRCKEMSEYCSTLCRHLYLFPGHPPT
Outline: as §1

[7] = read-out: potency (IC50) against caspase-10

| SMILES | inhibition at 10 µM [1] [%] | inhibition at 100 µM [1] [%] | IC50 ([1]; read-out: IC50 Casp9) [µM] | inhibition at 10 µM [2] [%] | inhibition at 100 µM [2] [%] | IC50 ([2]; read-out: IC50 Casp7) [µM] | inhibition at 10 µM [3] [%] | inhibition at 100 µM [3] [%] | IC50 [3] [µM] | inhibition at 10 µM [4] [%] | inhibition at 100 µM [4] [%] | IC50 ([4]; read-out: IC50 Casp6) [µM] | inhibition at 10 µM [5] [%] | inhibition at 100 µM [5] [%] | IC50 ([5]; read-out: IC50 Casp10) [µM] | inhibition at 10 µM [6] [%] | inhibition at 100 µM [6] [%] | IC50 [6] [µM] | other results |
| --- | --- | --- | --- | --- | --- | --- | --- | --- | --- | --- | --- | --- | --- | --- | --- | --- | --- | --- | --- |
| CC(C)[C@H](NC(=O)[C@@H](N)Cc1ccc(O)cc1)C(=O)N[C@@H](C)C(=O)N[C@H](/C=C/S(C)(=O)=O)CC(=O)O [Compound 42, Tyr-Val-Ala-Asp methyl vinyl sulfone] | 0 | 26 | > 100 | 0 | 0 | > 100 | 28 | 100 | 17.1 | 6 | 4 | > 100 | 13 | 79 | 34 | 0 | 0 | > 100 | – |
| CCOC(=O)/C=C/[C@@H](N)CC(=O)O [Compound 44, Asp ethyl vinyl ester tosyl salt] | 0 | 0 | > 100 | 0 | 0 | > 100 | 0 | 0 | > 100 | 0 | 0 | > 100 | 4 | 15 | > 100 | 0 | 3 | > 100 | – |
| CC(C)[C@H](NC(=O)[C@@H](NC(=O)[C@H](CC(=O)O)NC(=O)OCc1ccccc1)c1ccccc1)C(=O)N[C@H](/C=C/S(C)(=O)=O)CCC(=O)O [Compound 84, Z-Asp-Phg-Val-Glu methyl vinyl sulfone] | 0 | 6 | > 100 | 9 | 76 | 49.9 | 0 | 0 | > 100 | 0 | 5 | > 100 | 2 | 0 | > 100 | 0 | 3 | > 100 | – |
| CCOC(=O)/C=C/[C@H](CC(=O)O)NC(=O)[C@@H](NC(=O)[C@H](CCC(=O)O)NC(=O)[C@@H](NC(=O)OCc1ccccc1)C(C)C)c1ccccc1 [Compound 126, Z-Val-Glu-Phg-Asp-Ethyl Vinyl ester] | – | – | > 100 | – | – | > 100 | – | – | 0.77 | – | – | 0.48 | – | – | – | – | – | > 100 | IC50 [5, 7]: 0.002 µM |

Stronger by IC50 ([1]; read-out: IC50 Casp9), values ahead:

| inhibition at 10 µM [1] [%] | inhibition at 100 µM [1] [%] | IC50 ([1]; read-out: IC50 Casp9) [µM] | inhibition at 10 µM [2] [%] | inhibition at 100 µM [2] [%] | IC50 ([2]; read-out: IC50 Casp7) [µM] | inhibition at 10 µM [3] [%] | inhibition at 100 µM [3] [%] | IC50 [3] [µM] | inhibition at 10 µM [4] [%] | inhibition at 100 µM [4] [%] | IC50 ([4]; read-out: IC50 Casp6) [µM] | inhibition at 10 µM [5] [%] | inhibition at 100 µM [5] [%] | IC50 ([5]; read-out: IC50 Casp10) [µM] | inhibition at 10 µM [6] [%] | inhibition at 100 µM [6] [%] | IC50 [6] [µM] | SMILES | other results |
| --- | --- | --- | --- | --- | --- | --- | --- | --- | --- | --- | --- | --- | --- | --- | --- | --- | --- | --- | --- |
| 92 | 92 | 1 | 99 | 99 | 0.15 | 100 | 98 | 0.51 | 13 | 10 | – | 96 | 99 | 0.59 | 0 | 17 | – | CCOC(=O)/C=C/[C@H](CC(=O)O)NC(=O)[C@@H](NC(=O)[C@@H](NC(=O)[C@H](CC(=O)O)NC(=O)OCc1ccccc1)c1ccccc1)C(C)C [Compound 105, Z-Asp-Phg-Val-Asp Ethyl Vinyl Ester] | IC50 ([1]; read-out: potency (IC50) against caspase-9): 0.994 µM; IC50 ([2]; read-out: potency (IC50) against caspase-7): 0.145 µM; IC50 [5, 7]: 0.592 µM |
| – | – | 0.83 | – | – | 3.6 | – | – | 0.03 | – | – | > 100 | – | – | 0.55 | – | – | > 100 | CCOC(=O)/C=C/[C@H](CC(=O)O)NC(=O)[C@H]1CCCN1C(=O)[C@@H](NC(=O)c1ccc(N)c(Cl)c1)C(C)(C)C [Compound 116, (4-amino-3-chlorobenzene carbonyl)-t-Leu-Pro-Asp Ethyl vinyl ester] | – |
| 53 | 92 | 8.9 | 3 | 8 | > 100 | 100 | 100 | 0.6 | 3 | 6 | > 100 | 59 | 97 | 8.05 | 4 | 10 | > 100 | CCOC(=O)/C=C/[C@H](CC(=O)O)NC(=O)[C@H]1CCCN1C(=O)[C@@H](NC(=O)c1ccc2ccccc2n1)C(C)(C)C [Compound 118, 2-Quinoline carbonyl-t-Leu-Pro-Asp Ethyl Vinyl Ester] | – |
| – | – | 7.5 | – | – | > 100 | – | – | 1.27 | – | – | 0.29 | – | – | 0.03 | – | – | 10 | CCOC(=O)/C=C/[C@H](CC(=O)O)NC(=O)[C@@H](NC(=O)[C@H](CCC(=O)O)NC(=O)[C@@H](NC(=O)OCc1ccccc1)C(C)C)C(C)CC (stereo partly drawn) [Compound 124, Z-Val-Glu-Ile-Asp-Ethyl Vinyl ester] | IC50 ([4]; read-out: inhibition (IC50) against Caspase-6): 0.293 µM |
